Activity calls are given as the source filed them. The rule behind the calls is not given here.

This series has as its system rodent carcinogenicity bioassays, tumor incidence. Description: CCRIS carcinogenicity studies. To be noted: Dose: 0. An outline of the steps:
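NCI-built, expert-reviewed records of carcinogenicity and related test outcomes (mutagenicity, tumor promotion/inhibition) compiled from published and report sources, historical span 1985-2011, not updated.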

On to `Nc1ccc(N=Nc2ccc(-c3ccc(N=Nc4c(S(=O)(=O)O)cc5c(c4N)C(=O)/C(=N/Nc4ccccc4)C(S(=O)(=O)O)=C5)cc3)cc2)c(N)c1`, for which the carcinogen call was “active; positive” (Species: MOUSE, Strain/Sex: ICR/MALE,FEMALE, Route: ORAL, 0.3% IN DRINKING WATER FOR LIFE (STUDY DURATION: 50-60 WK), Tumor Site: Type of Lesion: LIVER: HEPATOCELLULAR CARCINOMA, MAMMARY GLAND: ADENOCARCINOMA OR SQUAMOUS CELL CARCINOMA); “active; positive” (Species: RAT, Strain/Sex: F344/FEMALE, Route: ORAL, 190, 375, 750, 1500, 3000 PPM IN DIET FOR 91 D (STUDY DURATION:93 D), 190, 375, 750, 1500, 3000 PPM IN DIET FOR 91 D (STUDY DURATION:93 D), Tumor Site: Type of Lesion: LIVER: NEOPLASTIC NODULE, FOCI OF CELLULAR ALTERATION OR BASOPHILIC FOCI); “active; positive” (Species: RAT, Strain/Sex: F344/MALE, Route: ORAL, 190, 375, 750, 1500, 3000 PPM IN DIET FOR 91 D (STUDY DURATION: 93 D), 190, 375, 750, 1500, 3000 PPM IN DIET FOR 91 D (STUDY DURATION: 93 D), Tumor Site: Type of Lesion: LIVER: HEPATOCELLULAR CARCINOMA OR NEOPLASTIC NODULE, FOCI OF CELLULAR ALTERATION OR BASOPHILIC FOCI).
As to `C=CC(=O)NCO`, the carcinogen call is “active; positive” (Species: MOUSE, Strain/Sex: B6C3F1/FEMALE, Route: GAVAGE, 25, 50 MG/KG IN DEIONIZED WATER 5 D/WK FOR 103 WK (STUDY DURATION: 105 WK), 25, 50 MG/KG IN DEIONIZED WATER 5 D/WK FOR 103 WK (STUDY DURATION: 105 WK), Tumor Site: Type of Lesion: HARDERIAN GLAND: ADENOMA, ADENOMA OR CARCINOMA, LIVER: HEPATOCELLULAR ADENOMA, HEPATOCELLULAR ADENOMA OR CARCINOMA, LUNG, Tumor Site: Type of Lesion: HARDERIAN GLAND: ADENOMA, ADENOMA OR CARCINOMA, LIVER: HEPATOCELLULAR ADENOMA, HEPATOCELLULAR ADENOMA OR CARCINOMA, LUNG); “active; positive” (Species: MOUSE, Strain/Sex: B6C3F1/MALE, Route: GAVAGE, 25, 50 MG/KG IN DEIONIZED WATER 5 D/WK FOR 103 WK (STUDY DURATION: 105 WK), 25, 50 MG/KG IN DEIONIZED WATER 5 D/WK FOR 103 WK (STUDY DURATION: 105 WK), Tumor Site: Type of Lesion: HARDERIAN GLAND: ADENOMA, ADENOMA OR CARCINOMA, LIVER: HEPATOCELLULAR ADENOMA, HEPATOCELLULAR CARCINOMA, LUNG: ALVEOLAR/, Tumor Site: Type of Lesion: HARDERIAN GLAND: ADENOMA, ADENOMA OR CARCINOMA, LIVER: HEPATOCELLULAR ADENOMA, HEPATOCELLULAR CARCINOMA, LUNG: ALVEOLAR/); “inactive; negative” (Species: RAT, Strain/Sex: F344/FEMALE, Route: GAVAGE, 6, 12 MG/KG IN DEIONIZED WATER 5 D/WK FOR 103 WK (STUDY DURATION: 105 WK), 6, 12 MG/KG IN DEIONIZED WATER 5 D/WK FOR 103 WK (STUDY DURATION: 105 WK)); “inactive; negative” (Species: RAT, Strain/Sex: F344/MALE, Route: GAVAGE, 6, 12 MG/KG IN DEIONIZED WATER 5 D/WK FOR 103 WK (STUDY DURATION: 105 WK), 6, 12 MG/KG IN DEIONIZED WATER 5 D/WK FOR 103 WK (STUDY DURATION: 105 WK)).
On to `CN(C)CCN(C)N=O`, for which the carcinogen call is, setting by setting: (Species: HAMSTER, Strain/Sex: SYRIAN/FEMALE, Route: INTRAGASTRIC, 36 MG/ML CORN OIL/ETHYL ACETATE (2:1) SOLUTION ADMINISTERED AS 0.2 ML 1/WK FOR 61 WK (STUDY DURATION: 106 WK), Tumor Site: Type of Lesion: NASAL CAVITY: ADENOMA, ESOPHAGUS: CARCINOMA, PAPILLOMA) “active; positive”; (Species: HAMSTER, Strain/Sex: SYRIAN/MALE, Route: INTRAGASTRIC, 36 MG/ML CORN OIL/ETHYL ACETATE (2:1) SOLUTION ADMINISTERED AS 0.2 ML 1/WK FOR 61 WK (STUDY DURATION: 106 WK), Tumor Site: Type of Lesion: NASAL CAVITY: ADENOMA, CARCINOMA, LIVER: HEPATOCELLULAR TUMOR) “active; positive”; (Species: RAT, Strain/Sex: F344/FEMALE, Route: GAVAGE, 14, MG/WK FOR A TOTAL DOSE OF 2.2 MMOL (STUDY DURATION: 40 WK), 14, MG/WK FOR A TOTAL DOSE OF 2.2 MMOL (STUDY DURATION: 40 WK), Tumor Site: Type of Lesion: ESOPHAGUS: TUMOR, NASAL MUCOSA: TUMOR) “active; positive”; (Species: RAT, Strain/Sex: F344/FEMALE, Route: INTRAGASTRIC, 36 MG/ML CORN OIL/ETHYL ACETATE (2:1) SOLUTION ADMINISTERED AS 0.2 ML 2/WK FOR 20 WK (STUDY DURATION: 38 WK), Tumor Site: Type of Lesion: NASAL CAVITY: ADENOMA, ESOPHAGUS: CARCINOMA, PAPILLOMA) “active; positive”; (Species: RAT, Strain/Sex: F344/FEMALE, Route: INTRAVESICULAR, 7 MG IN 0.2 ML ETHANOL: DEIONIZED WATER (1:3) 2/WK FOR 23 WK (TOTAL DOSE 2.5 NMOL) (STUDY DURATION: LIFESPAN), Tumor Site: Type of Lesion: ESOPHAGUS: TUMOR, NASAL MUCOSA: TUMOR) “active; positive”; (Species: RAT, Strain/Sex: F344/MALE, Route: GAVAGE, 14 MG/WK FOR A TOTAL DOSE OF 2.2 MMOL (STUDY DURATION: 40 WK), Tumor Site: Type of Lesion: ESOPHAGUS: TUMOR, NASAL MUCOSA: TUMOR) “active; positive”. For the same compound, the carcinogen call is “active; positive” (Species: RAT, Strain/Sex: F344/MALE, Route: INTRAGASTRIC, 36 MG/ML CORN OIL/ETHYL ACETATE (2:1) SOLUTION ADMINISTERED AS 0.2 ML 2/WK FOR 20 WK (STUDY DURATION: 38 WK), Tumor Site: Type of Lesion: NASAL CAVITY: ADENOMA, CARCINOMA, ESOPHAGUS: CARCINOMA, PAPILLOMA) and “active; positive” (Species: RAT, Strain/Sex: F344/MALE, Route: ORAL, 144 MG/L DEIONIZED DRINKING WATER ADMINISTERED AS 80 ML/WK FOR 20 WK (STUDY DURATION: 38 WK), Tumor Site: Type of Lesion: NASAL CAVITY: ADENOMA, ESOPHAGUS: CARCINOMA, PAPILLOMA).
Take `CC[N+]([O-])=NC`: the carcinogen call (Species: RAT, Strain/Sex: F344/MALE, Route: ORAL, 12, 48 MG/ML IN A NEUTRAL DEIONIZED DRINKING WATER SOLUTION 5 D/WK FOR 30 WK (TOTAL DOSE 36; 115 MG) (STUDY DURATION:, 12, 48 MG/ML IN A NEUTRAL DEIONIZED DRINKING WATER SOLUTION 5 D/WK FOR 30 WK (TOTAL DOSE 36; 115 MG) (STUDY DURATION:, Tumor Site: Type of Lesion: LIVER: CARCINOMA, HEMANGIOSARCOMA, COLON: ADENOCARCINOMA, ADENOMA, ILEUM: TUMOR, Tumor Site: Type of Lesion: LIVER: CARCINOMA, HEMANGIOSARCOMA, COLON: ADENOCARCINOMA, ADENOMA, ILEUM: TUMOR) was “active; positive”.
Regarding `CN(C)c1ccccc1`, the carcinogen call is “equivocal” (Species: MOUSE, Strain/Sex: B6C3F1/FEMALE, Route: GAVAGE, 15, 30 MG/KG IN CORN OIL FOR 103 WK (STUDY DURATION: 105 WK), 15, 30 MG/KG IN CORN OIL FOR 103 WK (STUDY DURATION: 105 WK), Tumor Site: Type of Lesion: FORESTOMACH: SQUAMOUS CELL PAPILLOMA); “inactive; negative” (Species: MOUSE, Strain/Sex: B6C3F1/MALE, Route: GAVAGE, 15, 30 MG/KG IN CORN OIL FOR 103 WK (STUDY DURATION: 105 WK), 15, 30 MG/KG IN CORN OIL FOR 103 WK (STUDY DURATION: 105 WK)); “inactive; negative” (Species: RAT, Strain/Sex: F344/FEMALE, Route: GAVAGE, 3, 30 MG/KG IN CORN OIL 5 D/WK FOR 103 WK (STUDY DURATION: 105 WK), 3, 30 MG/KG IN CORN OIL 5 D/WK FOR 103 WK (STUDY DURATION: 105 WK)); “active; positive” (Species: RAT, Strain/Sex: F344/MALE, Route: GAVAGE, 3, 30 MG/KG IN CORN OIL 5 D/WK FOR 103 WK (STUDY DURATION: 105 WK), 3, 30 MG/KG IN CORN OIL 5 D/WK FOR 103 WK (STUDY DURATION: 105 WK), Tumor Site: Type of Lesion: SPLEEN: SARCOMA, SARCOMA OR OSTEOSARCOMA).
